In patent US20030130200A1, “Small peptides and methods for treatment of asthma and inflammation” (Hisatek, LLC, priority 1997, published 2003):

Tests used:
[1] = system: OVA-induced asthmatic mice; assay: OVA-induced bronchial asthma mouse model, Standard/Resolution protocols, drug before each i.n. challenge; format: in vivo, mouse (female BALB/c); conditions: 1-, 2- and 3-month groups, versus OVA
From the text: The OVA-Induced Bronchial Asthma Mouse Model for Inhibition of Mast Cell Degranulation
Reagents: Crystalline OVA was obtained from Pierce Chem. Co. (Rockford, Ill.) aluminum potassium sulfate (alum) from Sigma Chem. Co. (St. Louis, Mo.), pyrogen-free distilled water from Baxter, Healthcare Corporation (Deerfield, Ill.), 0.9% sodium chloride (normal saline) from Lymphomed (Deerfield, Ill.) and Trappsol™ HPB-L100 (aqueous hydroxypropyl beta cyclodextrin; 45 wt/vol % aqueous solution) from Cyclodextrin Technologies Development, Inc. (Gainesville, Fla.). The OVA (500 μg/ml in normal saline) was mixed with equal volumes of 10% (wt/vol) alum in distilled water. The mixture (pH 6.5 using 10 N NaOH) after incubation for 60 minutes at room temperature underwent centrifugation at 750 g for 5 minutes; the pellet was resuspended to the original volume in distilled water and used within one hour.
The selective 5-lipoxtgenase inhibitor, Zileuton (N-[1-benzo[b]thien-2-ylethyl]-N-hydroxyurea; J. Pharmacol Exp Ther. 1991; 256: 929-937), was kindly provided by Drs. Bell and George W. Carter (Abbott Laboratories, Abbott Part, Ill.). Zileuton was dissolved in Trappsol.™. Histatek, Inc. (Seattle, Wash.) provided the mast cell degranulation inhibitor, f-Met-Leu-Phe-Phe (“HK-X”).
Female BALB/c […] (6-8 wk of age at purchase; D and K, Seattle Wash.) were housed under conventional conditions for the studies.
Allergen Immunization/Challenge Protocols: Mice received an i.p. injection of 0.2 ml (100 μg) of OVA with alum on the different protocols of Standard (FIG. 5A) and Resolution (FIG. 5B) (J. Exp Med. 1996; 184: 1483-1494). According to the different protocols, mice were anesthetized with 0.2 ml i.p. of ketamine (0.44 mg/ml)/xylazine (6.3 mg/ml) in normal saline before receiving an intranasal (i.n.) does of 100 μg OVA in 0.05 ml normal saline and an i.n. dose of 50 μg OVA in 0.05 ml normal saline separately on different days. Two control groups were used. Accordingly, the first group received normal saline with alum i.p. and normal saline without alum i.n.; the second group received OVA with alum i.p., OVA without alum i.n., and normal saline, alone.
The trachea and left lung (the right lung is used for bronchoalveolar lavage (“BAL”)) were obtained and fixed in 10% neutral formaldehyde solution at room temperature for 6˜15h. After being embedded in paraffin, the tissues were cut into 5-um sections and processed with the different staining or immunolabling further. Discombe's eosinophil staining was used for counting the cell numbers with the counterstain of methylene blue. The eosinophil number per unit airway area (2,200 μm^2) was determined by morphometry (J. Pathol. 1992; 166: 395-404; Am Rev Respir Dis. 1993; 147:448-456). Fibrosis was identified with the Masson's trichrome staining. Airway mucus was identified by the following staining method: methylene blue, hematoxylin and eosin, mucicarmine, alcian blue, and alcian blue/periodic acid-Schiff (PAS) reaction (Troyer, H., “Carbohydrates” in Principles and Techniques of Histochemistry, Little, Brown and Company, Boston, Mass., 1980: 89-121; Sheehan, D. C., et al., “Carbohydrates” in Theory and Practice of Histotechnology, Battle Press, Columbus, Ohio, 1980: 159-179). Mucin was stained with mucicarmine solution; metanil yellow counterstain was employed.
Acidic mucin and sulfated mucosubstances were stained with alcian blue, pH 2.5; nuclear fast red counterstain was used. Neutral and acidic mucosubstances were identified by alcian blue. pH 2.5, and PAS reaction. The degree of mucus plugging of the airways (0.5-0.8 mm in diameter) was also assessed by morphometry. The percent occlusion of airway diameter by mucus was classified on a semiquantitative scale from 0 to 4+ as described in Figure Legends. The histologic and morphometric analyses were performed by individuals blinded to the protocol design. […]

mast cells = assay: Rat skin model for inhibition of mast cell degranulation induced by Compound 48/80 (area of capillary permeability/bluing); format: in vivo, rat (male Sprague-Dawley); conditions: for % Degranulation: percent mast cell degranulation produced by 48/80, 100 nanomoles peptide, 0.15 μg Compound 48/80
From the text: The Rat Skin Model for Determination of Inhibition of Mast Cell Degranulation
Allergy induced asthma results from exposure of substances (allergens) to which an organism has become hypersensitized. Exposure to allergen results in degranulation of mast cells in the lung, releasing leukotrienes and histamines. […] Respiratory symptoms resulting from such an exposure range from mild (itching and sneezing) to potentially fatal (asthma), including in extreme chronic cases death by anaphylaxis.
In this model, the blood plasma of the experimental rat is labeled with the dye trypan blue. This soluble dye is carried in the bloodstream as a passive marker of plasma itself, and is excluded from live cells. Intact blood vessels including the capillary system, retain this dye under normal circumstances. A compound, which induces degranulation of mast cells (resulting in leukotriene and histamine release), is injected into the skin to simulate allergen-induced degranulation. In these experiments, Compound 48/80 was used for this purpose. In the events following leukotriene and histamine release, capillary permeability is increased, and plasma, dyed blue, leaks from capillaries and dyes the skin surrounding the injection site blue. The area of bluing is a measure of the amount of Compound 48/80 injected.
A compound can be tested for “anti-leukotriene” and/or “anti-histamine” activity by mixing it with Compound 48/80 prior to injection.
The rat skin model was undertaken and validated. Various peptides were tested at a predetermined dose for anti-leukotriene and/or anti-histamine activity. The dose selected allowed a general comparison to f-Met-Leu-Phe, which was standard compound for comparison.
A “dose response” titration was performed for some compounds and compared with the standard compound. Observing serial decreases in the size areas of capillary permeability using serially smaller doses of the putative inhibitory compound validates the inhibition of leukotriene and/or histamine release observed in the initial predetermined dose test.
Reagents were obtained from Sigma or Aldrich, with the exception of ketamine, a veterinary anaesthetic that was obtained from various veterinary suppliers. The rats used were male Sprague-Dawley breed, 220-240 g at time of purchase from B&K International.
For the rat skin reaction, rats were anaesthetized with 0.25 ml 10 mg/ml ketamine. 1.0 ml trypan blue in saline (sterile filtered) was administered in a tail vein, and the back of the rat was shaved. Four intradermal injection sites per rat were used for test and control injections.
Compound 48/80 was prepared as a 1.5 mg/ml stock solution in saline. […] Serial dilutions in saline to working levels were prepared just prior to injection of each rat.
Peptides were prepared as a 23 mM stock solution in DMSO, and stored at −20° C. between experiments. At the time of use, the frozen stock solutions were thawed, and appropriate aliquots added to dilutions of Compound 48/80, along with appropriate amounts of DMSO, to result in the ratio of 5 μl DMSO to 0.1 ml aqueous Compound 48/80.
For injections, 0.1 ml Compound […], +/− test compounds were injected intradermally into anaesthetized, dyed, and shaved rats. Following a 15 minute incubation, the rats were sacrificed by cervical dislocation and the back skin was evulsed and placed on a light box. An image of the backlit skin was digitized using a CCD video capture camera and compatible hardware/software. The digitized image was analyzed using a scientific graphics analysis software package, and the areas of capillary permeability (bluing) were integrated and digital values were obtained for further analysis.
A dose response curve was generated using Compound 48/80 at various doses from ca. 0.01 μg through ca 15 μg. […] A dose of 0.15 μg of Compound 48/80 was selected for conducting further tests.
A dose response curve was prepared for the standard compound, f-Met-Leu-Phe, using the selected dose of 0.15 μg Compound 48/80. […]

Molecule | Reduction of airway eosinophils over time course [1] | % Degranulation (mast cells) [%] | Inhibition of degranulation induced by Compound 48/80, dose response curve (mast cells; doses of 0 to about 230 nM peptide, 0.15 μg Compound 48/80 (FIG. 2, FIG. 3))
CC(c1cc2ccccc2s1)N(O)C(N)=O (centres unmarked) [Zileuton, N-[1-benzo[b]thien-2-ylethyl]-N-hydroxyurea, reference compound] | reduced eosinophils generally through 1-3 month |  | 
N-acetyl-Met-Leu-Phe [Example 3] |  | 98 | 
f-Met-Leu-Phe [Example 2, reference compound] |  | 60 | Inhibition of degranulation induced by Compound 48/80 was clearly shown
f-Met-Leu-Tyr [Example 10] |  | 30 | 
